The text below walks through data of US10800791B2, “Triazole ACC inhibitors and uses thereof” (Gilead Apollo, LLC, priority 2015, dated 2020).

Assay [1] deals with Diplodia maydis (Dm). Put plainly: Growth inhibition assay of fungal pathogens, Dm. The class given is cell-based. The note with it: Stenocarpella maydis, 48 h, Diplodia maydis, read-out: Concentration at 90% Inhibition Dm. In a few lines: (§1)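 Percent inhibition derived at 48 hours from OD600 and visual scores versus 2% DMSO control, with media+DMSO blank as background. Spore inocula in 17% V8 medium were sized from 48 h growth curves; compounds tested at final 50/10/2 or 2/0.4/0.08 ppm.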

Assay [2] concerns Fusarium virguliforme (Fv). Put plainly: Growth inhibition assay of fungal pathogens, Fv. The format is cell-based. The settings on record: 48 h, read-out: Concentration at 90% Inhibition Fv. In a few lines: as §1
The target of assay [3] is fungal (fACC2) (UniProt Q00955). The note with it: read-out: fACC2 (in vitro ACC2 Inhibition Assay, IC50), ADP-Glo, 5 nM ACC2, 20 μM ATP, 20 μM acetyl-CoA.
Chain of fungal (fACC2) (Q00955 whole entry): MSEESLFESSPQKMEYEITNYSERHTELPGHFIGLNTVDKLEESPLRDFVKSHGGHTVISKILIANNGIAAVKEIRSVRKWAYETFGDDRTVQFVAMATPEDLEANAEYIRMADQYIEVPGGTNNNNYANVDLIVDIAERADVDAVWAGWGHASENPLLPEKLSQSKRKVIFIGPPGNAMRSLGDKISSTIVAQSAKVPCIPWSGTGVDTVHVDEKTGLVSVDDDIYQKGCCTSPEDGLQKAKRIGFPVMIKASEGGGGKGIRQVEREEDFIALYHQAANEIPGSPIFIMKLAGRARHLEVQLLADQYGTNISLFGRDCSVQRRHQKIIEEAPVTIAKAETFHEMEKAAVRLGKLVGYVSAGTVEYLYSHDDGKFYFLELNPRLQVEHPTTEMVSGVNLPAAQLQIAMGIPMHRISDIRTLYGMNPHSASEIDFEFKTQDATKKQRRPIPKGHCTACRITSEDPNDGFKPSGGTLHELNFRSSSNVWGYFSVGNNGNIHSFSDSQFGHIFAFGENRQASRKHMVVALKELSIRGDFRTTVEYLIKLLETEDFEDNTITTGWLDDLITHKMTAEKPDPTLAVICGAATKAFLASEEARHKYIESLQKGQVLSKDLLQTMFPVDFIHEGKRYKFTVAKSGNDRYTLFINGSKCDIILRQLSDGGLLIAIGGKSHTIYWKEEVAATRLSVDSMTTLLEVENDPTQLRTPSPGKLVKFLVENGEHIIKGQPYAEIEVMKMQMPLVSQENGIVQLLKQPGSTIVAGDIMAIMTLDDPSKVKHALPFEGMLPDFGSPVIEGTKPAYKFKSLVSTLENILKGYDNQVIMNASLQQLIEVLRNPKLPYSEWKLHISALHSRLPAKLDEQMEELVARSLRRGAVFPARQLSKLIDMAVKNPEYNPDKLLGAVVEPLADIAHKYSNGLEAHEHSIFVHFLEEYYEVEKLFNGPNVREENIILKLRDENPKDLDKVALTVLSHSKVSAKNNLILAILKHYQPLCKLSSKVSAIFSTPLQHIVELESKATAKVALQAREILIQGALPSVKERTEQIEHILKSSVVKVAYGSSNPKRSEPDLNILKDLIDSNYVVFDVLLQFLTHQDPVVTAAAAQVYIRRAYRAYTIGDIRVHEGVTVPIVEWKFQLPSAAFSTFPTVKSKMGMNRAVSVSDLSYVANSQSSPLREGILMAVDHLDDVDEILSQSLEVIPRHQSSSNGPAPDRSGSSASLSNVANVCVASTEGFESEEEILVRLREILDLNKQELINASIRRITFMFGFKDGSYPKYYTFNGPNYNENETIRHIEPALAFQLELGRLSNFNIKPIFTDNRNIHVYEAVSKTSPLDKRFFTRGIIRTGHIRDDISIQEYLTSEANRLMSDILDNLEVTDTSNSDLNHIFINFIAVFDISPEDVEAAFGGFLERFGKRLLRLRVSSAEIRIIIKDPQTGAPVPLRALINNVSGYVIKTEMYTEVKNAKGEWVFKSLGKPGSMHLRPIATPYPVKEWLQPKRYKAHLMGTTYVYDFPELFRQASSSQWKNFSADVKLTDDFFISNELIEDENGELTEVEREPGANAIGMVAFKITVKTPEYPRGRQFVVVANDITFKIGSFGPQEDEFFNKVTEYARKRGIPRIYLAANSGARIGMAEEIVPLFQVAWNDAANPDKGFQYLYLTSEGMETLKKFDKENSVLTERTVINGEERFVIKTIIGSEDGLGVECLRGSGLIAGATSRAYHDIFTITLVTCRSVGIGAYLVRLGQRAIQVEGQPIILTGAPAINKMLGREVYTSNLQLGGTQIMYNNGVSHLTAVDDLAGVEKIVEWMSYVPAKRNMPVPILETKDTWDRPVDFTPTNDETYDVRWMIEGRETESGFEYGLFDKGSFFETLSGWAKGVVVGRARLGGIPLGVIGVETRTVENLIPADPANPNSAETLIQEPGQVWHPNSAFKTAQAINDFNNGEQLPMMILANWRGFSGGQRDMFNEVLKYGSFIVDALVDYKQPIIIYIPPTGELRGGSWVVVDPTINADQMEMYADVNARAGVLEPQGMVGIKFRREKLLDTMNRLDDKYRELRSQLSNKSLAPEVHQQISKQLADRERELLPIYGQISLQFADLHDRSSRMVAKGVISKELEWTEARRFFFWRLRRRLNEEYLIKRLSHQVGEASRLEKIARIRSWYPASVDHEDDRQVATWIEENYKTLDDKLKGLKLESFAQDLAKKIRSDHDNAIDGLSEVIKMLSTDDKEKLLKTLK
For assay [4], the system named is Rhizoctonia solani (Rs). Put plainly: Growth inhibition assay of fungal pathogens, Rs. The format is cell-based. The settings on record: 48 h, mycelial plugs, read-out: Concentration at 90% Inhibition Rs.
Assay [5] deals with Collectotrichum graminicola (Cg). Put plainly: Growth inhibition assay of fungal pathogens, Cg. The class given is cell-based. The note with it: 48 h, Collectotrichum graminicola, read-out: Concentration at 90% Inhibition Cg. In outline:
as §1

In assay [6] the test system is C. parapsilosis. The assay can be described thus: Antifungal Activity Assay (broth microtiter MIC), C. parapsilosis. The note with it: Lodderomyces parapsilosis, ATCC22019, 48 h, ATCC 22019, 3 replicates, MIC recorded at 48 h, read-out: MIC, C. parapsilosis ATCC 22019. The format is cell-based, Candida parapsilosis. In outline:
(§2)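 Susceptibility was determined by CLSI M27-A3 broth microdilution in RPMI 1640 buffered with MOPS. Growth inhibition was scored visually after 48 h.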

The test system of assay [7] is Botrtyis cinerea (Bc). Put plainly: Growth inhibition assay of fungal pathogens, Bc. The note with it: 48 h, Botrtyis cinerea, read-out: Concentration at 90% Inhibition Bc. The format is cell-based. In outline:
as §1

The test system of assay [8] is Fusarium moniliforme (Fm). The assay can be described thus: Growth inhibition assay of fungal pathogens, Fm. The class given is cell-based. The settings on record: Fusarium verticillioides, 48 h, Fusarium moniliforme, read-out: Concentration at 90% Inhibition Fm. In a few lines:
as §1

Assay [9] relates to C. krusei. Put plainly: Antifungal Activity Assay (broth microtiter MIC), C. krusei. The class given is cell-based, Candida krusei. The settings on record: Pichia kudriavzevii, ATCC6258, 48 h, ATCC 6258, 3 replicates, MIC recorded at 48 h, read-out: MIC, C. krusei ATCC 6258. In outline:
as §2

In assay [10] the test system is Septoria tritici (St). The assay can be described thus: Growth inhibition assay of fungal pathogens, St. The class given is cell-based. The settings on record: Zymoseptoria tritici, 48 h, Septoria tritici, read-out: Concentration at 90% Inhibition St. In a few lines:
as §1

The test system of assay [11] is C. albicans. Put plainly: Antifungal Activity Assay (broth microtiter MIC), C. albicans. The format is cell-based, Candida albicans. The settings on record: Candida albicans, ATCC90028, 48 h, ATCC 90028, 3 replicates, MIC recorded at 48 h, read-out: MIC, C. albicans ATCC 90028. In outline:
as §2

Setting [12] is: growth inhibition at 48 hours vs 2% DMSO control.
The mark [13] stands for this setting: growth inhibition vs 2% DMSO control at 48 hours.

In brackets after ≈: the same amount, converted by molar mass. Like-named read-outs stand apart in the source and are kept apart here.

By IC50 is commonly meant the midpoint of a concentration-inhibition curve. For orientation: MIC means the lowest concentration that inhibits growth of the organism. With `COc1ccc(F)cc1[C@H](Cn1c(=O)n([C@@H](C)C(=O)NC2CCC2)c(=O)c2c(C)c(-n3nccn3)sc21)OCCO` [Compound I-77, (S)—N-cyclobutyl-2-(1-((R)-2-(5-fluoro-2-methoxyphenyl)-2-(2-hydroxyethoxy)ethyl)-5-methyl-2,4-dioxo-6-(2H-1,2,3-triazol-2-yl)-1,4-dihydrothieno[2,3-d]pyrimidin-3(2H)-yl)propanamide], the IC90 in assay [1] (setting [12]) worked out at 2 µg/mL (≈ 3.41 µM); in assay [1] (setting [13]) it was 2 µg/mL (≈ 3.41 µM); in assay [2] (setting [12]), 0.4 µg/mL (≈ 0.682 µM); in assay [2] (setting [13]) it was 0.4 µg/mL (≈ 0.682 µM); in assay [4] (setting [12]), 2 µg/mL (≈ 3.41 µM); in assay [4] (setting [13]) it was 2 µg/mL (≈ 3.41 µM). Also, the IC90 stood at 2 µg/mL (≈ 3.41 µM) in assay [5] (setting [12]); 10 µg/mL (≈ 17 µM) in assay [5] (setting [13]); 0.4 µg/mL (≈ 0.682 µM) in [7] (setting [12]); 0.4 µg/mL (≈ 0.682 µM) in [7] (setting [13]); 0.08 µg/mL (≈ 0.136 µM) in assay [8] (setting [12]); 0.08 µg/mL (≈ 0.136 µM) in assay [8] (setting [13]). Further, the IC90 in assay [10] (setting [12]) and in [10] (setting [13]) was greater than 50 µg/mL in each case. Moreover, the IC50 in [3] (Table 2a) lay in the range of 1 to 5 nM; in [3] (Table 2b, additional results), 1 to 5 nM. Besides, the MIC in assay [6] (Table 3a) lay within 1.1 to 2 µg/mL (≈ 1.88 to 3.41 µM); in assay [6] (Table 3b (additional results)) it was 0.25 to 1 µg/mL (≈ 0.426 to 1.7 µM); in assay [9] (Table 3a), 2.1 to 4 µg/mL (≈ 3.58 to 6.82 µM); in assay [9] (Table 3b (additional results)), 0.25 to 1 µg/mL (≈ 0.426 to 1.7 µM); in assay [11] (Table 3a) it was 1.1 to 2 µg/mL (≈ 1.88 to 3.41 µM); in assay [11] (Table 3b (additional results)), 2.01 to 4 µg/mL (≈ 3.43 to 6.82 µM).
`COc1ccc(F)cc1[C@H](Cn1c(=O)n([C@@H](C)C(=O)N(C)C(C)C)c(=O)c2c(C)c(-n3nccn3)sc21)OCCO` [Compound I-78, (S)-2-(1-((R)-2-(5-fluoro-2-methoxyphenyl)-2-(2-hydroxy-ethoxy)ethyl)-5-methyl-2,4-dioxo-6-(2H-1,2,3-triazol-2-yl)-1,4-dihydrothieno[2,3-d]pyrimidin-3(2H)-yl)-N-isopropyl-N-methylpropanamide]: the IC90 in assay [1] (setting [12]) was 2 µg/mL (≈ 3.4 µM); in assay [1] (setting [13]), 2 µg/mL (≈ 3.4 µM); in [2] (setting [12]) it was 0.4 µg/mL (≈ 0.68 µM); in assay [2] (setting [13]) it was 0.4 µg/mL (≈ 0.68 µM); in assay [4] (setting [12]) it was 0.08 µg/mL (≈ 0.136 µM); in [4] (setting [13]), 0.08 µg/mL (≈ 0.136 µM). In addition, the IC90 in assay [5] (setting [12]) worked out at 0.4 µg/mL (≈ 0.68 µM); in assay [5] (setting [13]), 0.4 µg/mL (≈ 0.68 µM); in assay [7] (setting [12]), 0.4 µg/mL (≈ 0.68 µM); in assay [7] (setting [13]), 0.4 µg/mL (≈ 0.68 µM); in assay [8] (setting [12]), 0.08 µg/mL (≈ 0.136 µM); in assay [8] (setting [13]) it was 0.08 µg/mL (≈ 0.136 µM). For the same molecule, the IC90 was 10 µg/mL (≈ 17 µM) in [10] (setting [12]) and greater than 50 µg/mL in assay [10] (setting [13]). The IC50 lay within 1 to 5 nM in [3] (Table 2a) and 0.3 to 1 nM in assay [3] (Table 2b, additional results). Also, the MIC is 2.1 to 4 µg/mL (≈ 3.57 to 6.8 µM) in [6] (Table 3a); 2.01 to 4 µg/mL (≈ 3.41 to 6.8 µM) in assay [6] (Table 3b (additional results)); 2.1 to 4 µg/mL (≈ 3.57 to 6.8 µM) in assay [9] (Table 3a); 1.01 to 2 µg/mL (≈ 1.72 to 3.4 µM) in assay [9] (Table 3b (additional results)); 2.1 to 4 µg/mL (≈ 3.57 to 6.8 µM) in assay [11] (Table 3a); 1.01 to 2 µg/mL (≈ 1.72 to 3.4 µM) in assay [11] (Table 3b (additional results)).
As for `COCCO[C@@H](Cn1c(=O)n(CC(=O)N2CCCC2)c(=O)c2c(C)c(-n3nccn3)sc21)c1cc(F)ccc1OC` [Compound I-79, (R)-1-(2-(5-fluoro-2-methoxyphenyl)-2-(2-methoxy-ethoxy)ethyl)-5-methyl-3-(2-oxo-2-(pyrrolidin-1-yl)ethyl)-6-(2H-1,2,3-tria-zol-2-yl)thieno[2,3-d]pyrimidine-2,4(1H,3H)-dione], the IC90 in assay [1] (setting [12]) is 2 µg/mL (≈ 3.41 µM); in assay [1] (setting [13]), 2 µg/mL (≈ 3.41 µM); in assay [2] (setting [12]), 2 µg/mL (≈ 3.41 µM); in assay [2] (setting [13]), 10 µg/mL (≈ 17 µM); in assay [4] (setting [12]), 10 µg/mL (≈ 17 µM); in [4] (setting [13]), greater than 50 µg/mL. The IC90 in assay [5] (setting [12]) came to 2 µg/mL (≈ 3.41 µM); in assay [5] (setting [13]) it was 10 µg/mL (≈ 17 µM); in assay [7] (setting [12]), 2 µg/mL (≈ 3.41 µM); in assay [7] (setting [13]), 2 µg/mL (≈ 3.41 µM); in [8] (setting [12]), 0.4 µg/mL (≈ 0.682 µM); in assay [8] (setting [13]), 0.4 µg/mL (≈ 0.682 µM). The IC90 in assay [10] (setting [12]) and in [10] (setting [13]) was greater than 50 µg/mL each time. Further, the IC50 in assay [3] (Table 2a) fell in the range of 1 to 5 nM; in [3] (Table 2b, additional results) it was 1 to 5 nM. Besides, the MIC in assay [6] (Table 3a) was 2.1 to 4 µg/mL (≈ 3.58 to 6.82 µM); in [6] (Table 3b (additional results)), 2.01 to 4 µg/mL (≈ 3.43 to 6.82 µM); in assay [9] (Table 3a) it was 2.1 to 4 µg/mL (≈ 3.58 to 6.82 µM); in assay [9] (Table 3b (additional results)), greater than 4.01 µg/mL; in assay [11] (Table 3a), 2.1 to 4 µg/mL (≈ 3.58 to 6.82 µM); in assay [11] (Table 3b (additional results)) it was greater than 4.01 µg/mL.
